Measurements taken from US10112954B2, “Bicyclic heteroaryl derivatives having inhibitory activity for protein kinase” (HANMI PHARM. CO., LTD., priority 2010, dated 2018).

What was measured:
Type in all cases: biochemical
[1] = target: T1, FGFR1 (Homo sapiens, UniProt P11362); test: Inhibition of FGFR1 kinase (fluorescence polarization kinase assay); conditions: Table 3; read-out: IC50 (nM) FGFR1
T1 construct: purchased Upstate Company
Description: (§1) Inhibition activities of kinases of the inventive compounds (test compounds) prepared in the Examples were assessed and represented as IC50 values.
(§2) Kinases used in Test Examples 1 to 3 were purchased from Upstate Company.
(§3) 100 mM HEPES (pH 7.4), 25 mM MgCl2, 10 mM MnCl2 and 250 μM Na3VO4 were mixed to prepare a kinase buffer. Each of kinases to be measured was diluted to a concentration of 25˜300 ng per one reaction according to its activity with the kinase buffer. Also, each of the test compounds was serially diluted to a concentration starting from 100 nM up to 0.1 nM with the kinase buffer. 10 μl of the serially diluted solution of each of the test compounds and 10 μl of the diluted kinase were added to each well of a 96-well microplate, and the plate was incubated at room temperature for 10 mins. 10 μl of a substrate and 10 μl of ATP were successively added thereto to initiate a kinase reaction, and the resulting mixture was incubated at room temperature for 1 hour. The ATP was used in a form of a solution diluted to a concentration determined according to a kinase's Km value with distilled water. 10˜100 ng/mL poly(Glu, Tyr) 4:1 (Sigma) was used as the substrate. 10 μl of 6 mM EDTA was added to each well and stirred for 5 mins to terminate the kinase reaction. For a measurement of phosphorylation degree, 50 μl of a solution containing anti-phosphotyrosine antibody and fluorescein-labeled phosphopeptide was added to the reaction mixture, followed by incubating for 30 mins. The FP (fluorescence polarization) value of each well was determined with a Victor™ D fluorescence meter (Perkin Elmer Lifesciences).
(§4) IC50, the concentration at which 50% inhibition occurs, was evaluated based on the difference between the final concentration of the test cells and the initial concentration of the cells incubated in a well not-treated with the test compound which was regarded as 100%. IC50 values of the test compounds on the FGFR kinase were shown in Table 2, and those of the test compound obtained in Example 177 on various kinases, in Table 3.

[2] = target: T2, FGFR3 (Homo sapiens, UniProt P22607); test: Inhibition of FGFR3 kinase (fluorescence polarization kinase assay); conditions: Table 3; read-out: IC50 (nM) FGFR3
T2 construct: purchased Upstate Company
T2 sequence (P22607 23-806, species assumed): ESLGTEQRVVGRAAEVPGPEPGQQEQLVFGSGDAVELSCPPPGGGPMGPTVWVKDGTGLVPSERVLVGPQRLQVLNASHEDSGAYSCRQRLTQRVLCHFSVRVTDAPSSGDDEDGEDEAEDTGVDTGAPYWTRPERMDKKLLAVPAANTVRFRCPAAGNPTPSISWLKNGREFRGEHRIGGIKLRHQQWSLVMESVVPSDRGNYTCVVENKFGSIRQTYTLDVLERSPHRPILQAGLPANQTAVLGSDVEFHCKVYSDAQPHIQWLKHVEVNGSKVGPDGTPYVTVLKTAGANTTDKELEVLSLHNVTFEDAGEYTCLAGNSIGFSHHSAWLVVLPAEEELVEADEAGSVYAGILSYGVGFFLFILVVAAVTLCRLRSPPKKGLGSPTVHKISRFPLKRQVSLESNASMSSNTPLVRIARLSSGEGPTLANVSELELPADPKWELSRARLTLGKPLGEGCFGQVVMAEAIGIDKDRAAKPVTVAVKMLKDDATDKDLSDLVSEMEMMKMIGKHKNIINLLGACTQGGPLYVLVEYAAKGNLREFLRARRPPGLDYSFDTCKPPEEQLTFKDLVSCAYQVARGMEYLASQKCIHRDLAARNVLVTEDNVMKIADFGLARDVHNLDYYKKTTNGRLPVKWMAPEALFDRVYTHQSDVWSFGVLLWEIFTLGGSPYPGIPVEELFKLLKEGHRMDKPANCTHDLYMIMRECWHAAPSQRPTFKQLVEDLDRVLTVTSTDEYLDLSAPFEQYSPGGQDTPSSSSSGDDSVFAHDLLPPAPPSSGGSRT
Description: as §1, §2, §3, §4

[3] = target: T3, EGFR (Homo sapiens, UniProt P00533); test: Inhibition of EGFR (Her1) kinase; conditions: Table 3
T3 construct: purchased Upstate Company
Description: as §1, §2
as §3, with “10 μl of 6 mM EDTA was added to each well and stirred for 5 mins to terminate the kinase reaction. For a measurement of phosphorylation degree, 50 μl of a solution containing anti-phosphotyrosine antibody and fluorescein-labeled phosphopeptide was added to the reaction mixture, followed by incubating for 30 mins.” left out, “Lifesciences). […]” for “Lifesciences).”

[4] = target: T4, Her2 (Homo sapiens, UniProt P04626); test: Inhibition of Her2 kinase; conditions: Table 3
T4 construct: purchased Upstate Company
Description: as §1, §2
as §3, with “10 μl of 6 mM EDTA was added to each well and stirred for 5 mins to terminate the kinase reaction. For a measurement of phosphorylation degree, 50 μl of a solution containing anti-phosphotyrosine antibody and fluorescein-labeled phosphopeptide was added to the reaction mixture, followed by incubating for 30 mins.” left out, “Lifesciences). […]” for “Lifesciences).”

[5] = target: T5, Flt1 (Homo sapiens, UniProt P17948); test: Inhibition of Flt1 kinase; conditions: Table 3
T5 construct: purchased Upstate Company
Description: as §1, §2
as §3, with “10 μl of 6 mM EDTA was added to each well and stirred for 5 mins to terminate the kinase reaction. For a measurement of phosphorylation degree, 50 μl of a solution containing anti-phosphotyrosine antibody and fluorescein-labeled phosphopeptide was added to the reaction mixture, followed by incubating for 30 mins.” left out, “Lifesciences). […]” for “Lifesciences).”

[6] = target: T6, KDR (Homo sapiens, UniProt P35968); test: Inhibition of KDR kinase; conditions: Table 3
T6 construct: purchased Upstate Company
Description: as §1, §2
as §3, with “10 μl of 6 mM EDTA was added to each well and stirred for 5 mins to terminate the kinase reaction. For a measurement of phosphorylation degree, 50 μl of a solution containing anti-phosphotyrosine antibody and fluorescein-labeled phosphopeptide was added to the reaction mixture, followed by incubating for 30 mins.” left out, “Lifesciences). […]” for “Lifesciences).”

[7] = target: T7, Flt3 (Homo sapiens, UniProt P36888); test: Inhibition of Flt3 kinase; conditions: Table 3
T7 construct: purchased Upstate Company
T7 sequence (P36888 27-993): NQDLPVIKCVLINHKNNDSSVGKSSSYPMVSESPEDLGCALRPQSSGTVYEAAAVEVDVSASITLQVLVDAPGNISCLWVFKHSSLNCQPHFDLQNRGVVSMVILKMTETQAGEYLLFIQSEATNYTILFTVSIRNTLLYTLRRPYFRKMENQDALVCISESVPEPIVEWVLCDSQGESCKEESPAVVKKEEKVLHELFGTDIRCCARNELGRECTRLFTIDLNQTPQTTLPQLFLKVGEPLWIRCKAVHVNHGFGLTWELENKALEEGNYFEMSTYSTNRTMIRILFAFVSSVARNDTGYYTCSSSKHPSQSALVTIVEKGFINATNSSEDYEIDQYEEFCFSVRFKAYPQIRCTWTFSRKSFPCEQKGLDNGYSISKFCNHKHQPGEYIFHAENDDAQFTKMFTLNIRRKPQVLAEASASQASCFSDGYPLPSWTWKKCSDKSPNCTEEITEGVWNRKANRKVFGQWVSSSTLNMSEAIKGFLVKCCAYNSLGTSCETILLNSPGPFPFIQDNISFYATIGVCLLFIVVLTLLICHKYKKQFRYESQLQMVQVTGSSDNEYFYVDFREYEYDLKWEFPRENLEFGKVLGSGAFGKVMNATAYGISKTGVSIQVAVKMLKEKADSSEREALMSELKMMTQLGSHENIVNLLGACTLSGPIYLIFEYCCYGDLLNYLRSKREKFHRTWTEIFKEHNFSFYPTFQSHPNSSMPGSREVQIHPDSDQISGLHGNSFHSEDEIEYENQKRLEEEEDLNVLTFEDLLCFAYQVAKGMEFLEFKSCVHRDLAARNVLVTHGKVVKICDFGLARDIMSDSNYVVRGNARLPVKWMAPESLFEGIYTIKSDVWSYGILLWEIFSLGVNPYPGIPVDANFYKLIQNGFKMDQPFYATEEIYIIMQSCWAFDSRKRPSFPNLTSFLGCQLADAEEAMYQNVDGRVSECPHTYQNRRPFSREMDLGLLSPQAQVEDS
Description: as §1, §2
as §3, with “10 μl of 6 mM EDTA was added to each well and stirred for 5 mins to terminate the kinase reaction. For a measurement of phosphorylation degree, 50 μl of a solution containing anti-phosphotyrosine antibody and fluorescein-labeled phosphopeptide was added to the reaction mixture, followed by incubating for 30 mins.” left out, “Lifesciences). […]” for “Lifesciences).”

[8] = target: T8, PDGFRα (Homo sapiens, UniProt P16234); test: Inhibition of PDGFRα kinase; conditions: Table 3
T8 construct: purchased Upstate Company
Description: as §1, §2
as §3, with “10 μl of 6 mM EDTA was added to each well and stirred for 5 mins to terminate the kinase reaction. For a measurement of phosphorylation degree, 50 μl of a solution containing anti-phosphotyrosine antibody and fluorescein-labeled phosphopeptide was added to the reaction mixture, followed by incubating for 30 mins.” left out, “Lifesciences). […]” for “Lifesciences).”

[9] = target: T9, PDGFRβ (Homo sapiens, UniProt P09619); test: Inhibition of PDGFRβ kinase; conditions: Table 3
T9 construct: purchased Upstate Company
T9 sequence (P09619 33-1106, species assumed): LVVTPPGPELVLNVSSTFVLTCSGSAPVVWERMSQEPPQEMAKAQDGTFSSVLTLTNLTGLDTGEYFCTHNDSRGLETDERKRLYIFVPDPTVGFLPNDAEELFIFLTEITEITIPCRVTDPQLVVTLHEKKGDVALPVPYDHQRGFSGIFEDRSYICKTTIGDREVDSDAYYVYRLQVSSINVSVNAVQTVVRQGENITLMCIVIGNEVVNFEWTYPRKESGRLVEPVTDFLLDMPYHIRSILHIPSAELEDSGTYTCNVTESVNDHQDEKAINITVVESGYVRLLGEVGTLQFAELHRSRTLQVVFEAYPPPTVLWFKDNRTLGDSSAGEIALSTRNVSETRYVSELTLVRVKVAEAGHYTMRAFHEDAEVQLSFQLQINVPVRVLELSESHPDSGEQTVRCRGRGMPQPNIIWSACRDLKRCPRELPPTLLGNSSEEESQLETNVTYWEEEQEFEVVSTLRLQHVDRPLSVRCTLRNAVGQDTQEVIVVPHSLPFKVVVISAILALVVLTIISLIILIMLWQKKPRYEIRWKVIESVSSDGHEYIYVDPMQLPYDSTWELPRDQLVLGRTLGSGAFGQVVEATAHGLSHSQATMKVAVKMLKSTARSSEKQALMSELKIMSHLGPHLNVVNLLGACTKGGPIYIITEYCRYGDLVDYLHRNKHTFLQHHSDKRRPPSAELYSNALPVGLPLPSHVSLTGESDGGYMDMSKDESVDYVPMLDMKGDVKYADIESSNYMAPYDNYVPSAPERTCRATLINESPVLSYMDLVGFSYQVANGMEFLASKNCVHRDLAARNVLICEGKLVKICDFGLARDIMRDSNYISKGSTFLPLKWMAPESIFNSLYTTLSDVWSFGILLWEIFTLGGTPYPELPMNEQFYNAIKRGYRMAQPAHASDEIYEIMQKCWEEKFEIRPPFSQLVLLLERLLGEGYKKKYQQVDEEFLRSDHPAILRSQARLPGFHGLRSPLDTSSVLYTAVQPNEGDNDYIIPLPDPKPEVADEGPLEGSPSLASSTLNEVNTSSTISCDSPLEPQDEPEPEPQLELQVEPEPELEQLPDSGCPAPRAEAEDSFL
Description: as §1, §2
as §3, with “10 μl of 6 mM EDTA was added to each well and stirred for 5 mins to terminate the kinase reaction. For a measurement of phosphorylation degree, 50 μl of a solution containing anti-phosphotyrosine antibody and fluorescein-labeled phosphopeptide was added to the reaction mixture, followed by incubating for 30 mins.” left out, “Lifesciences). […]” for “Lifesciences).”

[10] = target: T10, Fms (Homo sapiens, UniProt P07333); test: Inhibition of Fms kinase; conditions: Table 3
T10 construct: purchased Upstate Company
Description: as §1, §2
as §3, with “10 μl of 6 mM EDTA was added to each well and stirred for 5 mins to terminate the kinase reaction. For a measurement of phosphorylation degree, 50 μl of a solution containing anti-phosphotyrosine antibody and fluorescein-labeled phosphopeptide was added to the reaction mixture, followed by incubating for 30 mins.” left out, “Lifesciences). […]” for “Lifesciences).”

[11] = target: T11, Kit (Homo sapiens, UniProt P10721); test: Inhibition of Kit kinase; conditions: Table 3
T11 construct: purchased Upstate Company
Description: as §1, §2
as §3, with “10 μl of 6 mM EDTA was added to each well and stirred for 5 mins to terminate the kinase reaction. For a measurement of phosphorylation degree, 50 μl of a solution containing anti-phosphotyrosine antibody and fluorescein-labeled phosphopeptide was added to the reaction mixture, followed by incubating for 30 mins.” left out, “Lifesciences). […]” for “Lifesciences).”

[12] = target: T12, Ret (Homo sapiens, UniProt P07949); test: Inhibition of Ret kinase; conditions: Table 3
T12 construct: purchased Upstate Company
Description: as §1, §2
as §3, with “10 μl of 6 mM EDTA was added to each well and stirred for 5 mins to terminate the kinase reaction. For a measurement of phosphorylation degree, 50 μl of a solution containing anti-phosphotyrosine antibody and fluorescein-labeled phosphopeptide was added to the reaction mixture, followed by incubating for 30 mins.” left out, “Lifesciences). […]” for “Lifesciences).”

[13] = target: T13, Tie2 (Homo sapiens, UniProt Q02763); test: Inhibition of Tie2 kinase; conditions: Table 3
T13 construct: purchased Upstate Company
T13 sequence (Q02763 23-1124, species assumed): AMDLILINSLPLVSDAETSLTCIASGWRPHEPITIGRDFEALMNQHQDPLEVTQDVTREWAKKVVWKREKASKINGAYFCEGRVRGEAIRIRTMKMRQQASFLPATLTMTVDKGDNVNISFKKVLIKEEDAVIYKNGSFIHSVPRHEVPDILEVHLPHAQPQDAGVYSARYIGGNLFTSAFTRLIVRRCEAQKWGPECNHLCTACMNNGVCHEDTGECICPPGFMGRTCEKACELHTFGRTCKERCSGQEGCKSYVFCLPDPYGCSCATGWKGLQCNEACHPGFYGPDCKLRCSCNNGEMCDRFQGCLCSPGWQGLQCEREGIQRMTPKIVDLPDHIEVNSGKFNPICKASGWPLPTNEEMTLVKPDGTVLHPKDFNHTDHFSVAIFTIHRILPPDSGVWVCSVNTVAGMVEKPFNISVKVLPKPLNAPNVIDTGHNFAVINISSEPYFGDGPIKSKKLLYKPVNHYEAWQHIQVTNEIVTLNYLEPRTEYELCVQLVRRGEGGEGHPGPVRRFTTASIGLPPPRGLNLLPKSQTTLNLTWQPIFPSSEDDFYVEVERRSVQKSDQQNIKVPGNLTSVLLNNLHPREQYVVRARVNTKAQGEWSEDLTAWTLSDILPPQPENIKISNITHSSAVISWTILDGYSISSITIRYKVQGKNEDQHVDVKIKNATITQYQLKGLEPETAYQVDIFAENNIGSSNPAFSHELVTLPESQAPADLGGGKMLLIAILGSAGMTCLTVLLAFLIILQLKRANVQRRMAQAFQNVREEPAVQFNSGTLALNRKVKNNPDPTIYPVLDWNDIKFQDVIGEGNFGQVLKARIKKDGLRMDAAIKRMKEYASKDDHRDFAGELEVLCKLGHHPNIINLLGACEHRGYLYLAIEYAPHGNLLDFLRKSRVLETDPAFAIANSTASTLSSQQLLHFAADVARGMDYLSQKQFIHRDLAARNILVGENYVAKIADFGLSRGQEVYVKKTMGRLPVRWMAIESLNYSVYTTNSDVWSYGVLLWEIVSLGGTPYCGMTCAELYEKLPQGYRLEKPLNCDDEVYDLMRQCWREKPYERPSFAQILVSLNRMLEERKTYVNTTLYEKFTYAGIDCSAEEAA
Description: as §1, §2
as §3, with “10 μl of 6 mM EDTA was added to each well and stirred for 5 mins to terminate the kinase reaction. For a measurement of phosphorylation degree, 50 μl of a solution containing anti-phosphotyrosine antibody and fluorescein-labeled phosphopeptide was added to the reaction mixture, followed by incubating for 30 mins.” left out, “Lifesciences). […]” for “Lifesciences).”

[14] = target: T14, Met (Homo sapiens, UniProt P08581); test: Inhibition of Met kinase; conditions: Table 3
T14 construct: purchased Upstate Company
T14 sequence (P08581 25-1390): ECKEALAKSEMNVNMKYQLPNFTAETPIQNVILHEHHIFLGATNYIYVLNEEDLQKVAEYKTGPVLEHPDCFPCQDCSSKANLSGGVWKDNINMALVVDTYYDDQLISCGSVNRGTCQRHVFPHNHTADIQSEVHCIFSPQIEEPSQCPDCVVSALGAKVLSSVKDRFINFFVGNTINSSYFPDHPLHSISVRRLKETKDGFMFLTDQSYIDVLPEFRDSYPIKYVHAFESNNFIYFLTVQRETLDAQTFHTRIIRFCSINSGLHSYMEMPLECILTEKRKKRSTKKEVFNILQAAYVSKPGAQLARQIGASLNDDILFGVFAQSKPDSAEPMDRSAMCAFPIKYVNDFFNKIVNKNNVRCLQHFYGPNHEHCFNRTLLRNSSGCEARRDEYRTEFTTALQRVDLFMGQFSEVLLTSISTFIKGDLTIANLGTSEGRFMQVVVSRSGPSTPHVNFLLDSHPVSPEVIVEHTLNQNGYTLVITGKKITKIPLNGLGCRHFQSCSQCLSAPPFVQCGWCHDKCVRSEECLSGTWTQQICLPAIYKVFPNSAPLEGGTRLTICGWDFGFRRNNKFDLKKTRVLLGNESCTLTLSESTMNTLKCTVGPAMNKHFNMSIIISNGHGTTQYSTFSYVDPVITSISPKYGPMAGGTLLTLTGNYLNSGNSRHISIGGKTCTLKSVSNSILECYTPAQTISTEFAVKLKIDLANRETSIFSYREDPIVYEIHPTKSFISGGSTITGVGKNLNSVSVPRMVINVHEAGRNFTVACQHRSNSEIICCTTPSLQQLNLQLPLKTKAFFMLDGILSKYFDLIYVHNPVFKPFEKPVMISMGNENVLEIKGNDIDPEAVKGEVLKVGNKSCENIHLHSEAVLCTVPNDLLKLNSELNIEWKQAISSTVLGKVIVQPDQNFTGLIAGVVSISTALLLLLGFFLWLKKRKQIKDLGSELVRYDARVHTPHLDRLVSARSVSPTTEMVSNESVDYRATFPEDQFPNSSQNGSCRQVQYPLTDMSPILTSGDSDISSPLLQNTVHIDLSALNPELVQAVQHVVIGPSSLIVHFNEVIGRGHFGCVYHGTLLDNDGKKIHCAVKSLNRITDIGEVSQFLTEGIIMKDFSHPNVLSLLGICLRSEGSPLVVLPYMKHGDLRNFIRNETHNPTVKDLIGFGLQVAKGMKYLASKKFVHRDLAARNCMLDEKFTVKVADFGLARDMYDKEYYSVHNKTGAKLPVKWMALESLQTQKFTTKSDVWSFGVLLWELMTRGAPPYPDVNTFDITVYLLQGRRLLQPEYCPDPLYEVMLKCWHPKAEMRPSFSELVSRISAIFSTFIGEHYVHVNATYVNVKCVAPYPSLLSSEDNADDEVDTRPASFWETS
Description: as §1, §2
as §3, with “10 μl of 6 mM EDTA was added to each well and stirred for 5 mins to terminate the kinase reaction. For a measurement of phosphorylation degree, 50 μl of a solution containing anti-phosphotyrosine antibody and fluorescein-labeled phosphopeptide was added to the reaction mixture, followed by incubating for 30 mins.” left out, “Lifesciences). […]” for “Lifesciences).”

[15] = target: T15, Src (Homo sapiens, UniProt P12931); test: Inhibition of Src kinase (Profluor Src kinase assay kit); conditions: Table 3
T15 construct: purchased Upstate Company
T15 sequence (P12931 whole entry, species assumed): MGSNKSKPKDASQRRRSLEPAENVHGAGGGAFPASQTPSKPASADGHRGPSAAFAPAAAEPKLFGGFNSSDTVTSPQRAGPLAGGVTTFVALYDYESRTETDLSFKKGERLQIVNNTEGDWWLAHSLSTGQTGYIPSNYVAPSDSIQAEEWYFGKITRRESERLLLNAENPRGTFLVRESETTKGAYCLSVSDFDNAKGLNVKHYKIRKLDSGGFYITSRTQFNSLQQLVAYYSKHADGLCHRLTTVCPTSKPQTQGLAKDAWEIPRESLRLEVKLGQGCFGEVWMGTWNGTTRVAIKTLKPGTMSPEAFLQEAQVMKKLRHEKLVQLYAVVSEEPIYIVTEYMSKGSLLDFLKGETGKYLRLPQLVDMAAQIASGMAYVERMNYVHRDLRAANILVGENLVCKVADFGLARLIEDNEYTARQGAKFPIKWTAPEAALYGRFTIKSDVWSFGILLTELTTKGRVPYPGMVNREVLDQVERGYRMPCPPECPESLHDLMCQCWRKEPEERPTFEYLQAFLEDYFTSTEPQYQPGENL
Description: as §1, §2
(§5) An inhibition activity of Src kinase was determined with an Src kinase assay kit (Profluor™, Promega). Each of kinases to be measured was diluted to a concentration of 25 ng per one reaction with the kinase buffer provided in the kit. Also, each of the test compounds was serially diluted to a concentration starting from 100 μM up to 0.1 nM with 10% DMSO. 5 μl of the serially diluted solution of each of the test compounds and 20 μl of the diluted kinase were added to each well of a 96-well microplate, and the plate was incubated at room temperature for 10 mins. 25 μl of ATP was added thereto, followed by incubating for 1 hour, and a protease solution was added thereto, followed by incubating for 1 hour. 25 μl of a stabilizer solution was added to the resulting solution, followed by incubating in dark for 5 mins. The absorbance of each well was determined with a fluorescence reader (Molecular Devices) (excitation wavelength: 485 nm, emission wavelength: 530 nm). […]

[16] = target: T16, Lck (Homo sapiens, UniProt P06239); test: Inhibition of Lck kinase (Profluor kit procedure); conditions: Table 3
T16 construct: purchased Upstate Company
Description: as §1, §2, §5

[17] = target: T17, Fyn (Homo sapiens, UniProt P06241); test: Inhibition of Fyn kinase (Profluor kit procedure); conditions: Table 3
T17 construct: purchased Upstate Company
Description: as §1, §2, §5

[18] = target: T18, Lyn (Homo sapiens, UniProt P07948); test: Inhibition of Lyn kinase (Profluor kit procedure); conditions: Table 3
T18 construct: purchased Upstate Company
Description: as §1, §2, §5

Measured: IC50

COc1cc(OC)c(Cl)c(NC(=O)c2csc3c(NC(=O)C4CC4)ncnc23)c1Cl [Example 177, 4-(cyclopropanecarbox-amido)-N-(2,6-dichloro-3,5-dimethoxyphenyl) thieno[3,2-d]pyrimidine-7-carboxamide]
< 100 nM: [1] | [2]
< 200 nM: [6] | [10]
> 1000 nM: all other assays above
